# What was measured:
# [1] = system: ER stress marker proteins XBP1(s) and ATF4; assay: ER stress marker immunoblot in parental HepG2 vs WFS1 KO cells; format: cell-based; conditions: 6 hours, immunoblotting
# From the text: In contrast WFS1 depletion had no effect on thapsigargin induced changes in global gene expression (FIG. 7.)
# WFS1 = WFS1 (Homo sapiens (Human), UniProt O76024); assay: Binding of radiolabeled Compound 136 to cellular membrane extracts
# Experimental: Cell pellets were re-suspended in 15 times packed cellular volume in 4° C. hypotonic lysis buffer (10 mM HEPES, pH 7.5 containing 1×Protease inhibitor, 0.5 mM EDTA and 2 mM DTT). Re-suspended cells were homogenized with 6-8 strokes in a dounce homogenizer kept on ice. Lysates were centrifuged at 500×G for 15 minutes at 4° C. without brake to decelerate rotor. Following centrifugation, remove the supernatant to a fresh tube and place on ice (Supernatant 1). Repeat the above steps on the lysed cell pellet using 0.5 the original volume of hypotonic lysis buffer and remove the 500× G supernatant (Supernatant 2) and combine with Supernatant 1. Transfer the combined supernatants to a 45-Ti ultracentrifuge tube and centrifuge at 100,000× G for 30 minutes. Following ultracentrifugation, carefully remove the supernatant and discard. Resuspend the 100,000× G pellet in cold resuspension buffer (10 mM HEPES, pH 7.5, 300 mM NaCl containing 1× Protease inhibitor, 1× EDTA and 2 mM DTT). […]
# The binding affinities of compounds were determined by measuring the competitive displacement of a tritiated Compound 136 probe from purified HEK293 membranes over-expressing WFS-1. […]
# The binding affinity of radiolabeled Compound 136 to cell membranes derived from cells expressing different levels of WFS1 as determined by immunoblotting is shown in FIG. 8. […]
# [2] = system: tumor xenografts derived from multiple cancer types; assay: In vivo efficacy of Compound 136 in various tumor xenografts; design: species or system SCID or nude mice; key to tumor response (regression class): CR: complete regression (majority response on treatment is that tumors become undetectable); PR: partial regression (majority response on treatment is that tumors shrink by at least 330%)
# Experimental: Female immune deficient mice (Charles River, 4-6 wks age) were anesthetized with Ketamine-Xylazine (140 mg/kg-14 mg/kg ip) and shaved. Puralube eye ointment was applied to the eyes to prevent desiccation of the corneas. Betadine and 70% ethanol was applied to the shaved location to sterilize the skin at the location of the incision. The animals were placed in a biosafety cabinet for the duration of the surgery. Using scissors, an 8 to 10 mm incision was made in the lateral flank of the skin. A tumor fragment weighing between 50 and 150 mg was placed under the skin at the incision site using forceps, and staples were used to close the incision. The staples were removed 5 to 7 days after surgery. Starting approximately two weeks after implantation, animals were weighed, and tumors were measured using caliper twice weekly. Tumor volume was calculated using the formula: volume=length×width^2×0.52.
# Compound administration began when xenografts reached approximately 100-300 mm3 and continued until control xenografts reached […] of the animal's body weight. Test compounds were administered orally by gastric gavage. Percent tumor growth inhibition (TG) was calculated on the indicated treatment day. Percent TGI is defined as: [1−(del T/del C)]×100%, where del T is the final minus initial average volumes of the treated group, and del C is the final minus initial average volumes of the control group. […] The tested compounds were administered orally. Vehicle control consisted of either 0.5% methylcellulose/0.1% sodium lauryl sulfate or 20% captisol. Tumor volumes were determined by caliper measurement twice a week.
# Tumors were engrafted in either SCID or nude mice. Compound 136 was administered orally once a day (QD) at 100 mg/kg. Vehicle control consisted of 0.5 methylcellulose/0.10% sodium lauryl sulfate. Tumor volumes were determined by caliper measurement twice a week. TG tumor growth inhibition at end of treatment. CR: complete regression (majority response on treatment is that tumors become undetectable), PR: partial regression (majority response on treatment is that tumors shrink by at least […]).
# [3] = Bladder BXF 1036, 100 mg/kg QD oral, 21 days
# [4] = Kidney RXF 631, 100 mg/kg QD oral, 21 days
# [5] = Melanoma MEXF 1765, 100 mg/kg QD oral, 21 days
# [6] = Multiple myeloma NCI-H929, 100 mg/kg QD oral, 21 days
# [7] = Multiple myeloma OPM2, 100 mg/kg QD oral, 21 days
# [8] = Non-small cell lung LXFL 529, 100 mg/kg QD oral, 21 days
# [9] = Non-small cell lung LXFL 625, 100 mg/kg QD oral, 21 days
# [10] = Non-small cell lung LXFL 2207, 100 mg/kg QD oral, 21 days
# [11] = Non-small cell lung OD26749, 100 mg/kg QD oral, 21 days
# [12] = Non-small cell lung OD33966, 100 mg/kg QD oral, 21 days
# Sequence of WFS1 (O76024 whole entry): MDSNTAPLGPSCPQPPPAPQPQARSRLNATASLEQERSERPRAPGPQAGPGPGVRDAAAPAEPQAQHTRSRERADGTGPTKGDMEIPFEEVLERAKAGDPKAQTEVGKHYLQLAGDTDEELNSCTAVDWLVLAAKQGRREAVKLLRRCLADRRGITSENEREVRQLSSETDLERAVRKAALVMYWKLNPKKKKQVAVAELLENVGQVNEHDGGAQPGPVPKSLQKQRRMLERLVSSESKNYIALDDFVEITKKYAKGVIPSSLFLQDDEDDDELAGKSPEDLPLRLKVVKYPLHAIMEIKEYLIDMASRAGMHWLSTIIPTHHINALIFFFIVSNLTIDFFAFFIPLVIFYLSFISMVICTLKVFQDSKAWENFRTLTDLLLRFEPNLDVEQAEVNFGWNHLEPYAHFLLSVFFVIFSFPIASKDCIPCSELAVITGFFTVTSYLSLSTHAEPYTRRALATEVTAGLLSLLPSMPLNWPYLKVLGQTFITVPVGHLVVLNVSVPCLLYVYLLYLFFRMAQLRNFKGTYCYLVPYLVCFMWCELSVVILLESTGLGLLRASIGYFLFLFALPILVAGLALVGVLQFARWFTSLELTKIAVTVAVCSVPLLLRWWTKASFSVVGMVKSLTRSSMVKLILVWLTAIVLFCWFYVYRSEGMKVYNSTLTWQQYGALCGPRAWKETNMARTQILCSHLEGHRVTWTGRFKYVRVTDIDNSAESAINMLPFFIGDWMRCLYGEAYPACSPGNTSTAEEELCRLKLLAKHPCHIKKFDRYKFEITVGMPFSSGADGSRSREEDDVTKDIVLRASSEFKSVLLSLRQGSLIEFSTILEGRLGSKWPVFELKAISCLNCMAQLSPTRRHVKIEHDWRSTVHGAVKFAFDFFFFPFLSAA
compound,measurement,setting,value
"Cc1nc(NCc2cnn(Cc3ccc(C(F)(F)F)nc3)c2)nc2c1NC(=O)[C@H](C)N2C [Compound 136, (7S)-4,7,8-trimethyl-2-(((1-((6-(trifluoromethyl)pyridin-3-yl)methyl)-111-pyrazol-4-yl)methyl)amino)-7,8-dihydropteridin-6(5H)-one]",effect of WFS1 depletion on induction of XBP1(s) and ATF4,[1],prevents the induction
same,binding to cellular membrane extracts which over-express WFS1,WFS1; radiolabeled (tritiated) Compound 136,specifically bind
same,Bmax vs level of WFS1 protein in cellular membrane,"WFS1; radiolabeled Compound 136, cells expressing different levels of WFS1",correlates with the level of WFS1 protein
same,% TGI,[2]; [3],> 100%
same,Body weight change at end of treatment,[2]; [3],+5.5%
same,tumor response (regression class),[2]; [3],PR
same,% TGI,"[2]; Breast DU4475, 100 mg/kg QD oral, 14 days",99%
same,% TGI,[2]; [4],89%
same,Body weight change at end of treatment,[2]; [4],+6.2%
same,% TGI,[2]; [5],> 100%
same,Body weight change at end of treatment,[2]; [5],+9.8%
same,tumor response (regression class),[2]; [5],CR
same,% TGI,[2]; [6],> 100%
same,Body weight change at end of treatment,[2]; [6],+1.8%
same,tumor response (regression class),[2]; [6],CR
same,% TGI,[2]; [7],> 100%
same,Body weight change at end of treatment,[2]; [7],−0.9%
same,tumor response (regression class),[2]; [7],CR
same,% TGI,[2]; [8],> 100%
same,Body weight change at end of treatment,[2]; [8],+5.5%
same,tumor response (regression class),[2]; [8],CR
same,% TGI,[2]; [9],> 100%
same,Body weight change at end of treatment,[2]; [9],+3.7%
same,tumor response (regression class),[2]; [9],CR
same,% TGI,[2]; [10],> 100%
same,Body weight change at end of treatment,[2]; [10],+1.5%
same,tumor response (regression class),[2]; [10],PR
same,% TGI,[2]; [11],> 100%
same,Body weight change at end of treatment,[2]; [11],−0.1%
same,tumor response (regression class),[2]; [11],CR
same,% TGI,[2]; [12],> 100%
same,Body weight change at end of treatment,[2]; [12],+4.5%
same,tumor response (regression class),[2]; [12],PR
same,growth of tumor xenografts,"[2]; orally once a day (QD) at 100 mg/kg, SCID or nude mice",inhibits growth of tumor xenografts derived from multiple cancer types

# From patent publication US20230312587A1, “PTERIDINONE COMPOUNDS AND USES THEREOF” (Vertex Pharmaceutical Incorporated, priority 2018, published 2023)
